The subject of assay [1] is engineered REC1 PLCγ2^S707Y knock-in tumors. The experiment in a line: Mouse xenograft tumor model, REC1 PLCγ2^S707Y knock-in. The class given is in vivo. To be noted: for TGI: 14 days after administration, S707Y tumors. How it is done: (§1) Parental REC1 cells (ATCC), engineered REC1 PLCγ2^S707Y cells, and engineered REC-1 PLCγ2^L845F cells, as described in Example 1, were maintained in vitro as monolayer culture in RPMI1640 medium supplemented with 10% fetal bovine serum and 1× Penicillin Streptomycin at 37° C. in an atmosphere of 5% CO2 in air. The tumor cells were routinely subcultured twice weekly. The cells growing in an exponential growth phase were harvested and counted for tumor inoculation. Each mouse was inoculated subcutaneously at the armpit of the right flank with 5×10^6 tumor cells in 0.1 mL of PBS mixed with 0.1 mL matrigel for tumor development. Treatment of the BTK degrader of Formula I-D (1.5 mg/kg, 3 mg/kg, 6 mg/kg, or 15 mg/kg, PO), Ibrutinib (25 mg/kg, PO), or vehicle (PO) started when the average tumor size reached approximately 100 mm^3. Mice were assigned into groups using an Excel-based randomization software performing stratified randomization based upon their tumor volumes. Tumor sizes were measured 3 times weekly in two dimensions using a caliper, and the volume was expressed in mm^3 using the formula: V=0.5 a×b^2 where a and b are the long and short diameters of the tumor, respectively. Tumor growth inhibition (TGI) was calculated for each group using the formula: TGI (%)=[1−(Ti−T0)/(Vi−V0)]×100; Ti is the average tumor volume of a treatment group on a given day, T0 is the average tumor volume of the treatment group on the first day of treatment, Vi is the average tumor volume of the vehicle control group on the same day with Ti, and V0 is the average tumor volume of the vehicle group on the first day of treatment.

The subject of assay [2] is engineered REC1 PLCγ2^L845F knock-in tumors. The experiment in a line: Mouse xenograft tumor model, REC1 PLCγ2^L845F knock-in. To be noted: for TGI: 14 days after administration, L845F tumors. Format: in vivo. The protocol:
as §1

Assay [3] has as its system engineered REC-1 PLCγ2^L845F cells. The experiment in a line: Cancer cell growth in vitro, CellTiter-Glo, 6 days. The class given is cell-based. The note with it: 6 days after administration, compared to Ibrutinib (FIG. 1C). The protocol:
(§2) Parental REC1 cells were obtained from the American Type Culture Collection (ATCC). PLCγ2 gene in REC-1 cell line was edited using the CRISPR-Cas9 technology to create a S to Y point mutation at residue 707 of PLCγ2 protein, or L to F point mutation at residue 845 of PLCγ2 protein. For gene editing, first, gRNA complex of PLCγ2 S707Y or PLCγ2 L845F was prepared with Alt-R CRISPR-Cas9 tracrRNA and crRNA PLCγ2 S707Y (5′-[…]-3′) or PLCγ2 L845F (5′-[…]-3′) (IDT-Integrated DNA Technologies), and then ribonucleoprotein (RNP) complex of PLCγ2 S707Y or PLCγ2 L845F was prepared with respective gRNA complex and Alt-R S.p. Cas9 Nuclease V3 (IDT-Integrated DNA Technologies). […]
(§3) Parental REC1 cells (ATCC), engineered REC1 PLCγ2^S707Y cells, or engineered REC-1 PLCγ2^L845F cells, were plated in 96-well plates at 8,000 cells/well in 90 μl of RPMI1640 growth medium containing 10% heat-inactivated FBS and 1× Penicillin Streptomycin, and then incubated at 37° C. overnight. […] The plates were then incubated at room temperature for 10 minutes and luminescence was recorded by EnSpire plate reader (PerkinElmer).

The test system of assay [4] is engineered REC1 PLCγ2^S707Y cells. In words: Cancer cell growth in vitro, CellTiter-Glo, 6 days. Format: cell-based. The note with it: 6 days after administration, compared to Ibrutinib (FIG. 1B). How it is done: as §2, §3

Turning to `COc1ccc(F)cc1C(=O)NCc1ccc(-c2nn(-c3ccc(N4CCC(CN5CCN(c6ccc7c(c6)CN(C6CCC(=O)NC6=O)C7=O)CC5)CC4)c(F)c3)c3ncnc(N)c23)cc1` (stereo not drawn) [Formula I-D], the TGI in assay [1] (3 mg/kg PO) is recorded as 61%; in assay [1] (6 mg/kg PO), 74%; in assay [1] (15 mg/kg PO), 86%; in assay [2] (3 mg/kg PO) it was 63%; in assay [2] (6 mg/kg PO) it was 81%; in assay [2] (15 mg/kg PO) it was 88%. The “tumor growth inhibition vs Ibrutinib” value in assay [1] (REC1 PLCγ2^S707Y knock-in mice, PO, 14 days after administration (FIG. 2B)) is “significantly inhibited tumor growth”; in assay [2] (REC-1 PLCγ2^L845F knock-in mice, PO, 14 days after administration (FIG. 2C)), “significantly inhibited tumor growth”. The cell growth inhibition result in assay [3] and in assay [4] was “significantly inhibited cell growth” throughout.
Turning to `C=CC(=O)N1CCC[C@@H](n2nc(-c3ccc(Oc4ccccc4)cc3)c3c(N)ncnc32)C1` [Ibrutinib, reference compound], the TGI is reported as 5% in assay [1] (Ibrutinib 25 mg/kg PO) and 12% in assay [2] (Ibrutinib 25 mg/kg PO).
